In patent US10653676B2 (Dana-Farber Cancer Institute, Inc., priority 2010, dated 2020):

Assays:
USP1 = target: T1, USP1 (Homo sapiens, UniProt O94782); assay: Ub-vinyl sulfone conjugation of USP1 in lysates of compound-treated HeLa cells; format: cell-based
T1 construct: endogenous in cells; host or cells: HeLa
Experimental: In one set of experiments, HeLa cells were incubated in the presence of 50 μM of selected inhibitors including the compound of Formula III (933) and the compound of Formula IV (527) for 2, 4, or 6 hours, followed by cell lysis. […] Lysates were incubated with the Ub-vinyl sulfone (Ub-Vs) reagent for 40 minutes. Proteins were electrophoresed on SDS-PAGE, transferred to nitrocellulose, and immunoblotted with the anti-USP1 antibody.
HeLa cells were incubated with the compound of Formula IV (527) for eight hours, followed by cell lysis and incubation of protein extract with Ub-vinyl sulfone.

[1] = system: HeLa cells, integrated with the NHEJ reporter; assay: NHEJ reporter assay; format: cell-based, human; settings: same condition as HR assay; FIG. 8B
Experimental: (§1) FIG. 8 is a composite figure showing that C527 inhibits homologous recombination repair. […] U2OS-DRGFP cells were transfected with I-SCE-I and then exposed to C527 at the indicated concentration for 24 h. Cells were then subjected to flow cytometry analysis. The percentage of GFP positive cells was normalized by solvent vehicle treated group. […] HeLa cells, integrated with the NHEJ reporter, were treated with C527 and analyzed as described in (FIG. 8A). […] HeLa cells were pre-treated with DMSO or C527 at the indicated concentration and then exposed to camptothecin (CPT) for 1 hr. RAD51 foci were detected using immunofluorescence.
Disruption of FANCD2 monoubiquitination or of USP1 activity (Oestergaard V H, Langevin F, Kuiken H J, et al. Deubiquitination of FANCD2 is required for DNA crosslink repair. Mol Cell. 2007; 28:798-809; Kim J M, Parmar K, Huang M, et al. Inactivation of murine Usp1 results in genomic instability and a Fanconi anemia phenotype. Dev Cell. 2009; 16:314-320) results in decreased HR. A gene conversion assay was used to examine the effect of C527 on cellular HR activity (FIG. 8A).

HeLa cells [2] = assay: clonogenic assay; format: cell-based, human; settings: FIG. 9B
Experimental: FIG. 9 is a composite figure showing that C527 causes DNA damage and inhibits the proliferation of tumor cells. […] HeLa cells were treated with C527 at the indicated concentrations for 24 hrs, and cells were subjected to immunoblotting. Mitomycin C (MMC, 1 μM) was used as a positive control. […] HeLa cells were seeded in a 6-well plate and treated with C527 at the indicated concentrations. Cell proliferation was evaluated using a clonogenic assay.
Cells were seeded in 6-well plate at 500 cells per well followed by treatment with C527. Colonies were allowed to grow for 7-10 days, fixed with a solution containing 10% Methanol and 10% acetic acid at room temperature for 15 min and then stained with 1% crystal violet in methanol. Colonies of >50 cells were counted, and the surviving fraction was calculated and normalized to untreated control.
Impaired HR integrity may lead to genotoxic effect. Genotoxic agents are known to directly activate DNA damage response pathways, resulting in FANCD2 monoubiquitination and CHK1 phosphorylation (FIG. 9A).

HeLa cells [3] = assay: camptothecin-induced RAD51 and H2AX foci formation, immunofluorescence; format: cell-based, human; settings: camptothecin for 1 hr after pre-treatment; FIG. 8C
Experimental: as §1
Cells were pre-extracted with extraction buffer (0.25% Triton-X100 in 200 mM HEPES at pH 7.4, 50 mM NaCl, 3 mM MgCl2 and 300 mM sucrose) on ice for 2 min prior to fixation with 4% paraformaldehyde. RAD51 foci were detected using anti-RAD51 antibody (Santa Cruz Biotechnology) and visualized using Alexa Fluor 488-conjugated secondary antibody. The quantification of cells with RAD51 foci was performed by counting the number of cells with RAD51 foci. At least 200 cells were counted from each sample. Data are represented as mean±SD from three independent experiments.
Camptothecin activated the assembly of RAD51 and H2AX foci.

HeLa cells [4] = assay: sensitization to DNA damaging agents, MTT assay; format: cell-based, human; settings: 1 μM C527 for 24 h, FIG. 10
Experimental: FIG. 10 is a composite figure showing that C527 sensitizes tumor cells to DNA damaging agents. HeLa cells were plated in 96-well plates and treated with 1 μM C527 for 24 h, followed by treatment with mitomycin C (MMC, 0.25 μM), camptothcin (CPT, 0.1 μM), or etoposide for 4 more days. Cell viability was assessed using the MTT assay.
HeLa cells were seeded in 96-well plate and treated with C527 for 4 more days. 20 μL MTT (Sigma) at 5 mg/mL was added to each well and cells were left at 37° C. for incubation. 4 h later, the metabolic product was dissolved in a solution containing 10% SDS, 5% isopropanol and 0.01 mol/L HCl. Optical density at 565 nm was measured in an automated plate reader. The percentage of cell survival was determined by normalizing to solvent vehicle treated cells.
Inhibitors of the FA-BRCA pathway are known to sensitize tumor cells to the cytotoxic effects of ICL-[…] agents. Specifically, it is known that proteasome inhibitors block FANCD2 monoubiquitination, perhaps through depletion of intracellular pools of free ubiquitin, resulting in inhibition of HR repair (Chirnomas D, Taniguchi T, de la Vega M, et al. Chemosensitization to cisplatin by inhibitors of the Fanconi anemia/BRCA pathway. Mol Cancer Ther. 2006; 5:952-961). The ability of C527 to sensitize pretreated human cells to MMC or to other agents was tested.

T1 sequence (O94782 whole entry): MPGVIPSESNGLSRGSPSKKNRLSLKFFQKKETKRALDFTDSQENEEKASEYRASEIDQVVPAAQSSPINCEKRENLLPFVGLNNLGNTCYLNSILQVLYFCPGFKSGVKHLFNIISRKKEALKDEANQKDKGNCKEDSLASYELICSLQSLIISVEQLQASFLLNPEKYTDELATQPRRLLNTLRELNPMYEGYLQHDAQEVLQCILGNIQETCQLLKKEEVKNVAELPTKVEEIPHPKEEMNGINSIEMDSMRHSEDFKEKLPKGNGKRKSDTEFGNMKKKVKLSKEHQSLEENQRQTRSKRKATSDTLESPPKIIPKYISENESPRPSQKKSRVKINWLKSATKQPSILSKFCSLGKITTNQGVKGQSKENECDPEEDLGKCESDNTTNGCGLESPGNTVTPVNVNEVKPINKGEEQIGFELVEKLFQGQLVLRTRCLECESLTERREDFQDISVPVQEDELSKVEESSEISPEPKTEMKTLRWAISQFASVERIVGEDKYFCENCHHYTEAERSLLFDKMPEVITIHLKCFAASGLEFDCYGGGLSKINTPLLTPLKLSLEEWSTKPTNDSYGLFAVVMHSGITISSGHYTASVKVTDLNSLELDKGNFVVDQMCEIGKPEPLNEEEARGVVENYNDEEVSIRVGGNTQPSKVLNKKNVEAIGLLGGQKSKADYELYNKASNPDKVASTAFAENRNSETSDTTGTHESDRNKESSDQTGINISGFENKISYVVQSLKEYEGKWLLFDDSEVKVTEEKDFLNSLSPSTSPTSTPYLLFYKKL
T1 sequence (Q8TAF3 whole entry partner): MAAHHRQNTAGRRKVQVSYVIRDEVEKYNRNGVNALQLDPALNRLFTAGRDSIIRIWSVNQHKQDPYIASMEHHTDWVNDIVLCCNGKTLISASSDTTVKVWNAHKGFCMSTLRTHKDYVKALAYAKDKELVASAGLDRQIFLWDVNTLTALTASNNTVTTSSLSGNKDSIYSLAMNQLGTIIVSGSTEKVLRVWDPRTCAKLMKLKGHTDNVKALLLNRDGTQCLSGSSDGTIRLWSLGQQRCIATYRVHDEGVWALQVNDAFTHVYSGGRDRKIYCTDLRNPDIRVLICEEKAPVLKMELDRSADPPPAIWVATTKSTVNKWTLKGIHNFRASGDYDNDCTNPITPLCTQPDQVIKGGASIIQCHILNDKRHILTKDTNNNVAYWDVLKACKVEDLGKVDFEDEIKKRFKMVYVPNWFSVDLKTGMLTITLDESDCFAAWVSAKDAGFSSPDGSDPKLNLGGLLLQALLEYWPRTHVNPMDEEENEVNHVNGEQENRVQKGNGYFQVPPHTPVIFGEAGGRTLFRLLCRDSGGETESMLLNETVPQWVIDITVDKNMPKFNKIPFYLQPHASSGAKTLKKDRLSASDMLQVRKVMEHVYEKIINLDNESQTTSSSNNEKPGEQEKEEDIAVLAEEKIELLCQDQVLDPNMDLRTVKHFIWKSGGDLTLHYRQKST

O=C1c2ccccc2C(=O)c2oc(-c3ccc(F)cc3)nc21 [Formula IV (527)]
USP1 deubiquitinase activity (Ub-vinyl sulfone) (USP1; HeLa cells incubated eight hours, increasing concentrations, FIG. 3): dose-dependent blockade
Ub-Vs conjugation of USP1 / deubiquitinase activity (USP1; HeLa cells, 50 μM inhibitor for 2, 4, or 6 hours, lysates with Ub-Vs 40 minutes, FIG. 2): potent inhibitor of deubiquitinase activity
non-homologous end joining (NHEJ) activity [1]: did not inhibit
cell proliferation (HeLa cells [2]): inhibited cell proliferation
H2AX foci formation (HeLa cells [3]): non-detectable effect
RAD51 foci formation (HeLa cells [3]): inhibited RAD51 foci formation
sensitization of cells to CPT (HeLa cells [4]; then CPT 0.1 μM for 4 more days): sensitized cells
sensitization of cells to MMC (HeLa cells [4]; then MMC 0.25 μM for 4 more days): sensitized cells
sensitization of cells to etoposide (HeLa cells [4]; then etoposide for 4 more days): not to etoposide
